How the values were obtained:
NLRP3 inflammasome = NLRP3 inflammasome (Homo sapiens, UniProt Q96P20); experiment: IL-1β assay in IFN-γ-differentiated, LPS-primed, ATP-activated THP-1 cells (ELISA); assay type: cell-based; settings: 50 ng/mL LPS priming, 2.5 mM ATP activation, 2 hours
How it was run: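 Supernatant IL-1β is quantified by ELISA after 2 h of 2.5 mM ATP stimulation at 37 °C, with IC50 taken from a four-parameter fit of % inhibition. Before this, THP-1 macrophages (25 ng/mL IFN-γ, 24 h) were LPS-primed (50 ng/mL, 24 h, no FBS) and exposed to serially diluted compound for 30 min.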

NF-κB pathway = experiment: TNF-α assay in IFN-γ-differentiated, LPS-stimulated THP-1 cells (ELISA); assay type: cell-based; settings: Homo sapiens, 50 ng/mL LPS, 3 hours
Description: Monocytic THP-1 cells (ATCC: TIB-202) are maintained in accordance with the provider's instructions in RPMI media (Life Technologies, Cat #A10491-01); RPMI is supplemented with 10% heat inactivated fetal bovine serum (Hyclone Cat #SH30396.03). The cells are differentiated into macrophages by the addition of 25 ng/mL IFN-γ for 24 hours at 37° C./5% CO2. Media is exchanged with fresh media with no FBS. The cells are plated at 40,000 cells per well in 384-well flat-bottom cell culture plates (Costar 3764) containing compounds (added in 1:1000) in a 1:3.16 serial dilution series in DMSO and are incubated for 30 minutes at 37° C./5% CO2. The NF-κB pathway is activated with the addition of 50 ng/mL LPS and the cells are incubated for 3 hours at 37° C./5% CO2. At the end of the incubation period, supernatant (40 μL) is removed, and […] are monitored using an ELISA (Human TNF-α ELISA, R&D systems, Cat #DY210) according to the manufacturer's instructions.
The IC50 values are calculated from a plot of percentage of inhibition versus the inhibitor concentration by a logistics curve fit according to: Y=[Bottom+(Top−Bottom)]/(1+10^[(Log IC50−X)·Hill Slope], where Y is the % inhibition at the inhibitor concentration, X, “Bottom” is the lowest inhibition value, i.e. 0%, “Top” is the maximum inhibition value, i.e. 100%, and the “Hill Slope” describes the slope of the sigmoidal curve between the “Bottom” and “Top” values. The curve fitting was conducted with internally developed software.

Sequence of NLRP3 inflammasome (Q96P20 whole entry): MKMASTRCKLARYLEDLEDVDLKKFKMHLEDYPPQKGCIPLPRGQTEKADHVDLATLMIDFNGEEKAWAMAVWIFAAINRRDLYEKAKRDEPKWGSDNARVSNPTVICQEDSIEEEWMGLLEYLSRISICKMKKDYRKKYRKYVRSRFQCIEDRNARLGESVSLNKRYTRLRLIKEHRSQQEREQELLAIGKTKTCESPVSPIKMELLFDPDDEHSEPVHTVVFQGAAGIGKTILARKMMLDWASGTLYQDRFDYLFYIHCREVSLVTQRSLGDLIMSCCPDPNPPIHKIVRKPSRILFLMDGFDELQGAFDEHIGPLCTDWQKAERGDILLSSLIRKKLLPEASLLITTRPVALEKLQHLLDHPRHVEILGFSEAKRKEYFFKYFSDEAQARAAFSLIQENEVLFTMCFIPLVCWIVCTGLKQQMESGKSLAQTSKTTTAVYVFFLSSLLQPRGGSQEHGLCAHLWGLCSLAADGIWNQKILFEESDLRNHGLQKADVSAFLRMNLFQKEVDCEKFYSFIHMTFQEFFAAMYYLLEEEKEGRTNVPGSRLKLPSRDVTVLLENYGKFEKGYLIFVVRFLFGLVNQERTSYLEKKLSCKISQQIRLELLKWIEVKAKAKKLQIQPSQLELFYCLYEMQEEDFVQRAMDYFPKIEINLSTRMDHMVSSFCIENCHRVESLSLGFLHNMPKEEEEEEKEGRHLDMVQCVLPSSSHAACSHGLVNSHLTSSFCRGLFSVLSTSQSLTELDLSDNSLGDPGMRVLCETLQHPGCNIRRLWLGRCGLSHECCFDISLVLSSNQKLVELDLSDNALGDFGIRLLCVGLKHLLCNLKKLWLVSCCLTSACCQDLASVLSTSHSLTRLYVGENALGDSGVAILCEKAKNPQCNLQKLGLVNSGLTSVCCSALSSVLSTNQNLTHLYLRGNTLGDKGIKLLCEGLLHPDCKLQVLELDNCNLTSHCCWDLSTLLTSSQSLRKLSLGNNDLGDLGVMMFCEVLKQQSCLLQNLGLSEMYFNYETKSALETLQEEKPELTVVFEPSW

| IC50 (NLRP3 inflammasome) [nM] | IC50 (NF-κB pathway) [nM] | SMILES |
| --- | --- | --- |
| 20 | > 30000 | CN1C[C@H](F)C[C@@H](Nc2nnc(-c3ccccc3O)c3ccncc23)C1 (relative stereo) [Example 172, 2-(4-((trans-5-fluoro-1-methylpiperidin-3-yl)amino)pyrido[3,4-d]pyridazin-1-yl)phenol] |
| 3 | > 30000 | Cc1ccc(-c2nnc(N[C@@H]3C[C@@H](F)CN(C)C3)c3cnccc23)c(O)c1 (relative stereo) [Example 173, 2-(4-((trans-5-fluoro-1-methylpiperidin-3-yl)amino)pyrido[3,4-d]pyridazin-1-yl)-5-methylphenol] |
| 1880 | 7200 | COc1ccc(-c2nnc(Nc3cccc(O)c3)c3ccccc23)cc1 [Example 1, 3-((4-(4-methoxyphenyl)phthalazin-1-yl)amino)phenol] |
| 112 | > 30000 | CN1CCCC(Nc2nnc(-c3ccc(C4CC4)cc3)c3ccccc23)C1 (centres unmarked) [Example 16, 4-(4-cyclopropylphenyl)-N-(1-methylpiperidin-3-yl)phthalazin-1-amine] |
| 1090 | 7760 | Oc1cccc(Nc2nnc(-c3ccc(C4CC4)cc3)c3ccccc23)c1 [Example 19, 3-((4-(4-cyclopropylphenyl)phthalazin-1-yl)amino)phenol] |
| 75 | > 30000 | CN1CCCC(Nc2nnc(-c3ccc(C(F)F)cc3)c3ccccc23)C1 (centres unmarked) [Example 21, 4-(4-(difluoromethyl)phenyl)-N-(1-methylpiperidin-3-yl)phthalazin-1-amine] |
| 8 | > 30000 | CN1CCC[C@@H](Nc2nnc(-c3ccccc3O)c3ccncc23)C1 [Example 28, (R)-2-(4-((1-methylpiperidin-3-yl)amino)pyrido[3,4-d]pyridazin-1-yl)phenol] |
| 97 | > 30000 | Cc1ccc(-c2nnc(N[C@@H]3CCCN(C)C3)c3cnccc23)cc1 [Example 30, (R)—N-(1-methylpiperidin-3-yl)-1-(p-tolyl)pyrido[3,4-d]pyridazin-4-amine] |
| 88 | > 30000 | COc1ccc(-c2nnc(N[C@@H]3CCCN(C)C3)c3cnccc23)cc1 [Example 35, (R)-1-(4-methoxyphenyl)-N-(1-methylpiperidin-3-yl)pyrido[3,4-d]pyridazin-4-amine] |
| 10 | > 30000 | COc1ccc(-c2nnc(N[C@@H]3CCCN(C)C3)c3cnccc23)c(O)c1 [Example 36, (R)-5-methoxy-2-(4-((1-methylpiperidin-3-yl)amino)pyrido[3,4-d]pyridazin-1-yl)phenol] |
| 1620 | > 30000 | COc1ccc(-c2nnc(Nc3ccccc3O)c3ccccc23)cc1 [Example 39, 2-((4-(4-methoxyphenyl)phthalazin-1-yl)amino)phenol] |
| 3020 | > 30000 | COc1ccc(-c2nnc(Nc3cccc(O)c3)c3cnccc23)cc1 [Example 40, 3-((1-(4-methoxyphenyl)pyrido[3,4-d]pyridazin-4-yl)amino)phenol] |
| 394 | > 30000 | COc1ccc(-c2nnc(Nc3cccc(O)c3)c3ccncc23)cc1 [Example 41, 3-((4-(4-methoxyphenyl)pyrido[3,4-d]pyridazin-1-yl)amino)phenol] |
| 3470 |  | CC(C)[C@@H]1CN(C)C[C@H]1Nc1nnc(-c2ccc(Cl)cc2)c2ccccc12 [Example 165, 4-(4-chlorophenyl)-N-((3S,4R)-4-isopropyl-1-methylpyrrolidin-3-yl)phthalazin-1-amine] |
| 3310 |  | Clc1ccc(-c2nnc(NC3CN4CCC3C4)c3ccccc23)cc1 (centres unmarked) [Example 166, N-(1-azabicyclo[2.2.1]heptan-3-yl)-4-(4-chlorophenyl)phthalazin-1-amine] |
| 3390 |  | Clc1ccc(-c2nnc(NC3CCN4CCC3C4)c3ccccc23)cc1 (centres unmarked) [Example 167, N-(1-azabicyclo[3.2.1]octan-4-yl)-4-(4-chlorophenyl)phthalazin-1-amine] |
| 589 |  | CN1C[C@H](F)C[C@@H](Nc2nnc(-c3ccc(Cl)cc3)c3cnccc23)C1 [Example 175, 4-(4-chlorophenyl)-N-((3R,5R)-5-fluoro-1-methylpiperidin-3-yl)pyrido[3,4-d]pyridazin-1-amine] |

| IC50 (NLRP3 inflammasome) [nM] | IC50 (NF-κB pathway) [nM] | SMILES |
| --- | --- | --- |
| 575 |  | COc1ccc(-c2nnc(N[C@@H]3C[C@@H](F)CN(C)C3)c3ccncc23)cc1 [Example 179, N-((3R,5R)-5-fluoro-1-methylpiperidin-3-yl)-4-(4-methoxyphenyl)pyrido[3,4-d]pyridazin-1-amine] |
| 136 |  | COc1ccc(-c2nnc(N[C@@H]3C[C@@H](F)CN(C)C3)c3cnccc23)c(F)c1 [Example 180, N-((3R,5R)-5-fluoro-1-methylpiperidin-3-yl)-1-(2-fluoro-4-methoxyphenyl)pyrido[3,4-d]pyridazin-4-amine] |
| 1000 |  | COc1cc(F)ccc1-c1nnc(N[C@@H]2C[C@@H](F)CN(C)C2)c2cnccc12 [Example 181, N-((3R,5R)-5-fluoro-1-methylpiperidin-3-yl)-1-(4-fluoro-2-methoxyphenyl)pyrido[3,4-d]pyridazin-4-amine] |
| 3470 |  | COc1cc(F)ccc1-c1nnc(N[C@@H]2C[C@@H](F)CN(C)C2)c2ccncc12 [Example 182, N-((3R,5R)-5-fluoro-1-methylpiperidin-3-yl)-4-(4-fluoro-2-methoxyphenyl)pyrido[3,4-d]pyridazin-1-amine] |
| 589 |  | CN1C[C@H](F)C[C@@H](Nc2nnc(-c3ccc(Cl)cc3F)c3cnccc23)C1 [Example 183, 4-(4-chloro-2-fluorophenyl)-N-((3R,5R)-5-fluoro-1-methylpiperidin-3-yl)pyrido[3,4-d]pyridazin-1-amine] |
| 3090 |  | F[C@H]1CNC[C@H](Nc2nnc(-c3ccc(Cl)cc3)c3cnccc23)C1 [Example 187, 4-(4-chlorophenyl)-N-((3R,5R)-5-fluoropiperidin-3-yl)pyrido[3,4-d]pyridazin-1-amine] |
| 692 |  | F[C@H]1CNC[C@H](Nc2nnc(-c3ccc(Cl)cc3)c3ccncc23)C1 [Example 188, 1-(4-chlorophenyl)-N-((3R,5R)-5-fluoropiperidin-3-yl)pyrido[3,4-d]pyridazin-4-amine] |
| 1290 |  | FC1(F)CNCC(Nc2nnc(-c3ccc(Cl)cc3)c3ccccc23)C1 (centres unmarked) [Example 191, 4-(4-chlorophenyl)-N-(5,5-difluoropiperidin-3-yl)phthalazin-1-amine] |
| 708 |  | COC1CC(N2CCCC(Nc3nnc(-c4ccc(Cl)cc4)c4ccncc34)C2)C1 (centres unmarked) [Example 197, 1-(4-chlorophenyl)-N-(1-(3-methoxycyclobutyl)piperidin-3-yl)pyrido[3,4-d]pyridazin-4-amine] |
| 4380 |  | COc1ccc(-c2nnc(Nc3cccc(O)c3)c3ncccc23)cc1 [Example 198, 3-((5-(4-methoxyphenyl)pyrido[2,3-d]pyridazin-8-yl)amino)phenol] |
| 2750 |  | COc1ccc(-c2nnc(Nc3cccc(O)c3)c3c2CCCC3)cc1 [Example 199, 3-((4-(4-methoxyphenyl)-5,6,7,8-tetrahydrophthalazin-1-yl)amino)phenol] |
| 210 |  | CN1C[C@H](F)C[C@@H](Nc2nnc(-c3ccccc3O)c3c2CCOC3)C1 [Example 202, 2-(1-(((3R,5R)-5-fluoro-1-methylpiperidin-3-yl)amino)-7,8-dihydro-5H-pyrano[3,4-d]pyridazin-4-yl)phenol] |
| 457 |  | COc1ccc(-c2nnc(N[C@@H]3CCCN(C)C3)c3c2COCC3)cc1 [Example 223, (R)-4-(4-methoxyphenyl)-N-(1-methylpiperidin-3-yl)-7,8-dihydro-5H-pyrano[3,4-d]pyridazin-1-amine] |
| 21 |  | CN1CCC[C@@H](Nc2nnc(-c3ccccc3O)c3c2CCOC3)C1 [Example 227, (R)-2-(1-((1-methylpiperidin-3-yl)amino)-7,8-dihydro-5H-pyrano[3,4-d]pyridazin-4-yl)phenol] |
| 23 |  | COc1ccc(-c2nnc(N[C@@H]3CCCN(C4CC4)C3)c3c2CCOC3)cc1 [Example 228, (R)—N-(1-cyclopropylpiperidin-3-yl)-1-(4-methoxyphenyl)-7,8-dihydro-5H-pyrano[3,4-d]pyridazin-4-amine] |
| 195 |  | Cc1ccc(-c2nnc(NC34CCC(O)(CC3)C4)c3c2CCOC3)c(O)c1 [Example 231, 4-((1-(2-hydroxy-4-methylphenyl)-7,8-dihydro-5H-pyrano[3,4-d]pyridazin-4-yl)amino)bicyclo[2.2.1]heptan-1-ol] |

| SMILES | IC50 (NLRP3 inflammasome) [nM] | IC50 (NF-κB pathway) [nM] |
| --- | --- | --- |
| FC(F)CN1CCC(Nc2nnc(-c3ccc(Cl)cc3)c3ccccc23)C1 (centres unmarked) [Example 170, 4-(4-chlorophenyl)-N-(1-(2,2-difluoroethyl)pyrrolidin-3-yl)phthalazin-1-amine] | 2140 |  |
